Results: patent publication US8222216B2, “Mesenchymal cell proliferation promoter and skeletal system biomaterial” (Osaka University, priority 2006, dated 2012)
No end group written: not given here.

Legend:
[1] = system: human bone marrow-derived mesenchymal stem cells; experiment: Proliferation of human marrow-derived mesenchymal stem cells (WST-1 cell counting); format: cell-based; settings: 10 to 100 ng/ml peptide, day-4 or later, P<0.01, n=6, FIG. 1
Description: (§1) An in vitro experiment was conducted to analyze how the SVVYGLR peptide (SEQ ID NO: 1) affected a proliferating ability of mesenchymal cells present in intercellular substances of bone marrow and dental pulp.
(§2) Purchased human bone marrow-derived mesenchymal stem cells (Cambrex BioScience Inc.) were used as the mesenchymal cells of the intercellular substance of bone marrow. Further, “dental pulp cells”, the mesenchymal cells that constitute a main component of dental pulp tissue, were isolated from a lower incisor of a Sprague-Dawley rat (8-week old male) and cultured based on the method of Nakamura H et al. (J Dent Res. 84: 515-520: 2005), and used for the experiment.
(§3) These cells were seeded into a 96-well cell culture plate at a rate of 5,000 cells/well, and the number of cells under the presence of the SVVYGLR peptide (SEQ ID NO: 1) (0 to 100 ng/ml) was measured by using WST-1 Cell Counting Kit (DOJINDO LABORATORIES). A culture medium was replaced every other day.

[2] = system: dental pulp cells; experiment: Proliferation of dental pulp cells (WST-1 cell counting); format: cell-based, Sprague-Dawley rat; settings: 10 to 100 ng/ml peptide, day-10 or later, P<0.01, n=6, FIG. 2
Description: as §1, §2, §3

[3] = system: mesenchymal cells isolated from thigh bone marrow; experiment: Pellet culture of bone marrow mesenchymal cells (three-dimensional proliferation); format: cell-based, Sprague-Dawley rat; settings: 100 ng/ml peptide
Description: A pellet culture experiment was conducted to analyze how the SVVYGLR peptide (SEQ ID NO: 1) affected the mesenchymal cells when the mesenchymal cells clump together three-dimensionally over a long time.
The mesenchymal cells were isolated from thigh bone marrow of a Sprague-Dawley rat (8-week old male), and cultured in a pellet culture with initial count of 50,000 cells based on the method of Tsutsumi S et al. (Biochem Biophys Res Commun. 288:413-419:2001). The incubation was carried out with a culture medium prepared in such a manner that dexamethasone (100 nM, Sigma-Aldrich), ascorbic acid (50 μg/ml, Sigma-Aldrich), ITS+ premix (100 times diluted, BD Biosciences), and recombinant human transforming growth factor-β1 (10 ng/ml, PeproTech EC) were added to α-MEM (high glucose: Nacalai Tesque, Inc). The SVVYGLR peptide (SEQ ID NO: 1) (100 ng/ml) was added to the culture medium and the pellet was incubated for 26 days. The culture medium was replaced every other day.
The pellet was collected and fixed in phosphate buffered 10% formalin solution for 3 hours at 4° C. After the pellet was washed with PBS (pH7.4), the pellet was soaked in the PBS of a culture plate and photographed under a phase contrast microscope. Planar dimensions of the pellet on a photographed image were measured by using an image analysis software ImageJ ver.1.33u (National Institute of health, USA).

[4] = system: human marrow-derived mesenchymal stem cells; experiment: Adhesion of human marrow-derived mesenchymal stem cells to peptide-coated plate (crystal violet); format: cell-based; settings: plate coated with 0.01 to 100 μg/ml peptide, 30 minutes incubation, P<0.01, n=8, FIG. 9
Description: (§4) An effect that is exerted on adhesive capacity of the mesenchymal cells by the SVVYGLR peptide (SEQ ID NO: 1) was analyzed. The mesenchymal cells used in this example were: human marrow-derived mesenchymal stem cells (human mesenchymal stem cell for study: provided by RIKEN CELL BANK); human gingival fibroblasts (isolated from human gingival and cultured according to a publicly known method); and human periodontal ligament cells (normal human periodontal ligament fibroblast cells: purchased from Sanko Junyaku Co., Ltd).
(§5) A coating plate was produced through the steps of: adding the synthesized SVVYGLR peptide (SEQ ID NO: 1) (0 to 100 μg/ml) to a 96-well microplate for floating cells (ASAHI TECHNO GLASS CORPORATION) for culturing these cells, allowing the microplate to stand for 2 hours at 37 °C, and rinsing the microplate twice in phosphate buffer (PBS: Sigma Pharmaceuticals Ltd). The SVVYGLR peptide (SEQ ID NO: 1) was synthesized with the method described in example 1. […]
(§6) The cells attached to the coating plate were stained with 0.1% crystal violet (Wako Chemicals USA. Inc) […], and then rinsed three times with PBS. Twenty-percent TritonX (Sigma Pharmaceuticals Ltd) was added to each well, and 48 hours later, optical density of each well at a wavelength of […] was measured (reference wavelength […]) by using an optical density spectrometer (BioRad model 680).

[5] = system: human gingival fibroblasts; experiment: Adhesion of human gingival fibroblasts to peptide-coated plate (crystal violet); format: cell-based; settings: plate coated with 0.01 to 100 μg/ml peptide, 30 minutes incubation, P<0.01, n=8, FIG. 10
Description: as §4, §5, §6

[6] = system: human periodontal ligament cells; experiment: Adhesion of human periodontal ligament cells to peptide-coated plate (crystal violet); format: cell-based; settings: plate coated with 0.01 to 100 μg/ml peptide, 30 minutes incubation, P<0.01, n=8, FIG. 11
Description: as §4, §5, §6

SVVYGLR [SVVYGLR peptide, osteopontin-derived peptide of seven amino acids, synthesized by Fmoc solid-phase method]
number of human marrow-derived mesenchymal stem cells compared to control group [1]: significantly increased | number of dental pulp cells compared to control group [2]: significantly increased | toluidine blue staining of pellet segments (extracellular matrix, acid mucopolysaccharide) ([3]; 26 days pellet culture): no toluidine blue staining was observed | pellet size (planar dimensions) relative to control group ([3]; incubated 26 days, three pellets per group, FIG. 4): 1.5 times | number of human marrow-derived mesenchymal stem cells adhered to coated plate compared to control [4]: significantly increased density-dependently | number of human gingival fibroblasts adhered to coated plate compared to control [5]: significantly increased density-dependently | number of human periodontal ligament cells adhered to coated plate compared to control [6]: significantly increased density-dependently
